How the values were obtained:
Assay type in all cases: cell-based
Molt-4 = assay: MTT assay, Molt-4 cells; details: Homo sapiens, MOLT-4, 24 h, read-out: Viability rate
Description: (§1) K562, Jurkat, Molt-4, and Nalm-6 cell lines were cultured in RPMI-1640 medium (ECM2001, Euroclone), Reh cell line was cultured in DMEM medium (LM-D1111-Biosera) Hek293T cell line was cultured in IMDM medium (AL070A - HiMedia) supplemented with 10% heat-inactivated fetal bovine serum (F7524-Merck & Co., USA,) penicillin and streptomycin (P4333-Sigma Aldrich). K562, Jurkat and Molt-4 cell lines were seeded as 4x10^5/ml, Reh and Nalm-6 cell lines were seeded 5x10^5/ml, Hek293T cell line was seed as 2x10^5/ml. All cells were incubated at 5% CO2 and 37 °C. All cell lines were kindly provided by Dr. M. Sayitoglu and Dr. Ö. Hatirnaz-Ng from Acibadem University.
(§2) MTT assay is a 3-day test. On the first day, cell count was performed in Bio Rad TC-20 device with the help of trypan blue, each cell line was prepared by diluting to the specified concentrations and seeded in a 96-well plate as 100μL to each well and incubated for 1 day.
(§3) Each compound was solved in DMSO, their stock solutions (33.3, 10, 5, 1 mM, and 300 μM) were prepared by diluting with the same solvent and they were stored under −20°C when they were not used.
(§4) On the second day, stock solutions were subsequently diluted to various concentrations (0.3–200 μM) with related medium prior to experiments. Specified concentrations of the compounds were seeded in a 96-well plate as 100μL to each well and incubated for 24 h.
(§5) After incubation (on the third day), to precipitate leukemia cells, the cell plate was centrifuged at 1500 rpm for 5 min. Then, 100 μL of supernatant was removed from each well carefully and 10 μl of MTT solution (5 mg/mL) was added to each well and incubated at 37 °C for 4 h. The 50 μl of supernatant was discarded from each well and 100 μl of DMSO was added to dissolve the formazan. Plates were shaken for 45 min to dissolve the dye. Then the optical density of each well was measured by using Thermo VarioSkan Flush Multimode Reader Quantum ST5-1100 at 570 nm wavelength.
(§6) Subsequently, viability rate of the cells at each concentration, as percentage, was determined by following formula (1):
(§7) Viability rate (%)=100-[(OD(control)-OD(sample))/OD(control)×100].OD=Optical Density
(§8) The IC50 values were calculated by using GraphPad Prism. All the data presented as the mean of 6 replicates. Results were analyzed and illustrated with Graph Pad Prism (version 5; GraphPad Software, San Diego, CA, USA). Statistical analysis was performed using dose-response inhibition, log(inhibitor) vs response-variable slope, least squares (ordinary) fit.
(§9) To evaluate in-vitro anti-cancer activity of the newly synthesized compounds, they were tested by using the MTT assay in the BCR-ABL positive leukemic cell line (K562), BCR-ABL negative leukemic cell lines (Nalm-6, Molt-4, Reh and Jurkat), and non-leukemic human embryonic kidney tissue (Hek293T) cell line. […] The viability rate of each concentration was calculated by the formula stated in material and methods, the viability rate results for each cell were presented in Table S2 and Figure S44.

[1] = MTT assay, Hek293T non-leukemic control cells; details: human, read-out: Viability rate
Description: as §1, §2, §3, §4, §5, §6, §7, §8, §9

K562 = assay: MTT assay, K562 cells; details: Homo sapiens, 24 h, MTT, read-out: Viability rate
Description: (§10) After incubation (on the third day), to precipitate leukemia cells, the cell plate was centrifuged at 1500 rpm for 5 min. […] The 50 μl of supernatant was discarded from each well and 100 μl of DMSO was added to dissolve the formazan. Plates were shaken for 45 min to dissolve the dye. Then the optical density of each well was measured by using Thermo VarioSkan Flush Multimode Reader Quantum ST5-1100 at 570 nm wavelength.
(§11) The IC50 values were calculated by using GraphPad Prism. All the data presented as the mean of 6 replicates. […] Statistical analysis was performed using dose-response inhibition, log(inhibitor) vs response-variable slope, least squares (ordinary) fit.

Reh = assay: MTT assay, Reh cells; details: Homo sapiens, 24 h, read-out: Viability rate
Description: as §1, §2, §3, §4, §5, §6, §7, §8, §9

Jurkat = assay: MTT assay, Jurkat cells; details: Homo sapiens, 24 h, read-out: Viability rate
Description: as §1, §2, §3, §4, §5, §6, §7, §8, §9

Nalm-6 = assay: MTT assay, Nalm-6 cells; details: Homo sapiens, 24 h
Description: as §10, §11

[2] = test system: K562, Nalm-6, Molt-4, Reh, Jurkat, Hek293T cell lines; assay: MTT assay, overall judgement over all cell lines; details: overall judgement in words; for 6 and 10: on all cell lines, except Reh
Description: as §9

Cc1ccnc(Nc2cc(NC(=O)c3ccc(CN4CCOCC4)cc3)ccc2C)c1 [Compound 9, N-(4-Methyl-3-((4-methylpyridin-2-yl)amino)phenyl)-4-(morhpolinomethyl)benzamide]
viability at 0.3 µM (Molt-4; Molt-4, 0.3 μM): 93.2 ± 0.17%
viability at 0.5 µM (Molt-4; Molt-4, 0.5 μM): 87.8 ± 0.05%
viability at 1 µM (Molt-4; Molt-4, 1 μM): 78.4 ± 0.11%
viability at 3 µM (Molt-4; Molt-4, 3 μM): 72.7 ± 0.04%
viability at 5 µM (Molt-4; Molt-4, 5 μM): 71.7 ± 0.07%
viability at 10 µM (Molt-4; Molt-4, 10 μM): 69.3 ± 0.04%
viability at 15 µM (Molt-4; Molt-4, 15 μM): 68.9 ± 0.05%
viability at 20 µM (Molt-4; Molt-4, 20 μM): 63.5 ± 0.04%
viability at 30 µM (Molt-4; Molt-4, 30 μM): 62 ± 0.03%
viability at 50 µM (Molt-4; Molt-4, 50 μM): 61.5 ± 0.07%
viability at 70 µM (Molt-4; Molt-4, 70 μM): 59.8 ± 0.05%
viability at 100 µM (Molt-4; Molt-4, 100 μM): 59.5 ± 0.08%
viability at 150 µM (Molt-4; Molt-4, 150 μM): 58.6 ± 0.06%
viability at 200 µM (Molt-4; Molt-4, 200 μM): 54.7 ± 0.03%
viability at 24 h, 0.3 µM ([1]; Hek293T cells (non-leukemic control cell line), 0.3 μM): 91.7 ± 0.07%
viability at 24 h, 0.5 µM ([1]; Hek293T cells (non-leukemic control cell line), 0.5 μM): 89.8 ± 0.07%
viability at 24 h, 3 µM ([1]; Hek293T cells (non-leukemic control cell line), 3 μM): 87.4 ± 0.07%
viability at 24 h, 5 µM ([1]; Hek293T cells (non-leukemic control cell line), 5 μM): 86.2 ± 0.03%
viability at 24 h, 10 µM ([1]; Hek293T cells (non-leukemic control cell line), 10 μM): 79.3 ± 0.05%
viability at 24 h, 15 µM ([1]; Hek293T cells (non-leukemic control cell line), 15 μM): 78.3 ± 0.03%
viability at 24 h, 20 µM ([1]; Hek293T cells (non-leukemic control cell line), 20 μM): 76.5 ± 0.05%
viability at 24 h, 30 µM ([1]; Hek293T cells (non-leukemic control cell line), 30 μM): 68.9 ± 0.03%
viability at 24 h, 50 µM ([1]; Hek293T cells (non-leukemic control cell line), 50 μM): 62.2 ± 0.02%
viability at 24 h, 70 µM ([1]; Hek293T cells (non-leukemic control cell line), 70 μM): 56.2 ± 0.04%
viability at 24 h, 100 µM ([1]; Hek293T cells (non-leukemic control cell line), 100 μM): 54.8 ± 0.02%
viability at 24 h, 150 µM ([1]; Hek293T cells (non-leukemic control cell line), 150 μM): 46.9 ± 0.02%
viability at 24 h, 200 µM ([1]; Hek293T cells (non-leukemic control cell line), 200 μM): 42.8 ± 0.02%
viability at 24 h, 1 µM ([1]; Hek293T cells, 1 μM): 89.5 ± 0.05%
viability at 0.3 µM (K562; K562, 0.3 μM): 79.9 ± 0.09%
viability at 0.5 µM (K562; K562, 0.5 μM): 78.5 ± 0.03%
viability at 1 µM (K562; K562, 1 μM): 77.3 ± 0.08%
viability at 3 µM (K562; K562, 3 μM): 77 ± 0.04%
viability at 5 µM (K562; K562, 5 μM): 75.4 ± 0.09%
viability at 10 µM (K562; K562, 10 μM): 73.2 ± 0.08%
viability at 15 µM (K562; K562, 15 μM): 72 ± 0.06%
viability at 20 µM (K562; K562, 20 μM): 69.1 ± 0.03%
viability at 30 µM (K562; K562, 30 μM): 69.7 ± 0.07%
viability at 50 µM (K562; K562, 50 μM): 61.2 ± 0.08%
viability at 70 µM (K562; K562, 70 μM): 58.1 ± 0.1%
viability at 100 µM (K562; K562, 100 μM): 51.3 ± 0.06%
viability at 150 µM (K562; K562, 150 μM): 49.7 ± 0.05%
viability at 200 µM (K562; K562, 200 μM): 45%
viability at 0.3 µM (Reh; 0.3 μM): 103.8 ± 0.01%
viability at 0.5 µM (Reh; 0.5 μM): 101.3 ± 0.03%
viability at 1 µM (Reh; 1 μM): 100.4 ± 0.01%
viability at 3 µM (Reh; 3 μM): 100.5 ± 0.02%
viability at 5 µM (Reh; 5 μM): 101.8 ± 0.03%
viability at 10 µM (Reh; 10 μM): 103.4 ± 0.02%
viability at 15 µM (Reh; 15 μM): 100.2 ± 0.02%
viability at 20 µM (Reh; 20 μM): 99 ± 0.02%
viability at 30 µM (Reh; 30 μM): 91.4 ± 0.01%
viability at 50 µM (Reh; 50 μM): 88.2 ± 0.02%
viability at 70 µM (Reh; 70 μM): 84.7 ± 0.03%
viability at 100 µM (Reh; 100 μM): 87.1 ± 0.02%
viability at 150 µM (Reh; 150 μM): 85 ± 0.01%
viability at 200 µM (Reh; 200 μM): 82 ± 0.02%
viability at 0.3 µM (Jurkat; 0.3 μM): 82.3 ± 0.05%
viability at 0.5 µM (Jurkat; 0.5 μM): 82 ± 0.06%
viability at 1 µM (Jurkat; 1 μM): 82 ± 0.05%
viability at 3 µM (Jurkat; 3 μM): 81.7 ± 0.05%
viability at 5 µM (Jurkat; 5 μM): 83 ± 0.04%
viability at 10 µM (Jurkat; 10 μM): 81.9 ± 0.02%
viability at 15 µM (Jurkat; 15 μM): 80.4 ± 0.02%
viability at 20 µM (Jurkat; 20 μM): 79 ± 0.04%
viability at 30 µM (Jurkat; 30 μM): 72.9 ± 0.07%
viability at 50 µM (Jurkat; 50 μM): 68.1 ± 0.01%
viability at 70 µM (Jurkat; 70 μM): 65.1 ± 0.02%
viability at 100 µM (Jurkat; 100 μM): 49.6 ± 0.07%
viability at 150 µM (Jurkat; 150 μM): 46.9 ± 0.05%
viability at 200 µM (Jurkat; 200 μM): 39.1 ± 0.04%
viability at 0.3 µM (Nalm-6; Nalm-6, 0.3 μM, MTT, read-out: Viability rate): 86.4 ± 0.05%
viability at 0.5 µM (Nalm-6; Nalm-6, 0.5 μM, MTT, read-out: Viability rate): 85.2 ± 0.05%
viability at 1 µM (Nalm-6; Nalm-6, 1 μM, MTT, read-out: Viability rate): 72.7 ± 0.04%
viability at 3 µM (Nalm-6; Nalm-6, 3 μM, MTT, read-out: Viability rate): 64.5 ± 0.02%
viability at 5 µM (Nalm-6; Nalm-6, 5 μM, MTT, read-out: Viability rate): 62.6 ± 0.04%
viability at 10 µM (Nalm-6; Nalm-6, 10 μM, MTT, read-out: Viability rate): 53.2 ± 0.03%
viability at 15 µM (Nalm-6; Nalm-6, 15 μM, MTT, read-out: Viability rate): 50.1 ± 0.03%
viability at 20 µM (Nalm-6; Nalm-6, 20 μM, MTT, read-out: Viability rate): 49.2 ± 0.01%
viability at 30 µM (Nalm-6; Nalm-6, 30 μM, MTT, read-out: Viability rate): 48.1 ± 0.01%
viability at 50 µM (Nalm-6; Nalm-6, 50 μM, MTT, read-out: Viability rate): 43.9 ± 0.01%
viability at 70 µM (Nalm-6; Nalm-6, 70 μM, MTT, read-out: Viability rate): 42.8 ± 0.01%
viability at 100 µM (Nalm-6; Nalm-6, 100 μM, MTT, read-out: Viability rate): 42.5 ± 0.01%
viability at 150 µM (Nalm-6; Nalm-6, 150 μM, MTT, read-out: Viability rate): 42.5 ± 0.01%
viability at 200 µM (Nalm-6; Nalm-6, 200 μM, MTT, read-out: Viability rate): 39.2%
IC50 (Nalm-6; Nalm-6, MTT, range 0.3–200 μM, six replicates): 1640 nM
anticancer activity according to MTT assay results [2]: relatively lower activity
